Experimental data: paper PMC9736874, “Development of Hydroxamate Derivatives Containing a Pyrazoline Moiety as APN Inhibitors to Overcome Angiogenesis” (Molecules, 2022)

Tests used:
[1] = target: T1, porcine kidney aminopeptidase N (APN) (Sus scrofa, UniProt P15145); assay: Enzymatic inhibition assay against APN in vitro (L-Leu-p-nitroanilide substrate); type: biochemical; conditions: soluble APN from porcine kidney microsomal, 37 °C, 30 min; triplicate, mean ± SD
T1 construct: purchased Enzo Life Sciences; host or cells: porcine kidney microsomes (tissue-derived)
T1 sequence (P15145 1-963): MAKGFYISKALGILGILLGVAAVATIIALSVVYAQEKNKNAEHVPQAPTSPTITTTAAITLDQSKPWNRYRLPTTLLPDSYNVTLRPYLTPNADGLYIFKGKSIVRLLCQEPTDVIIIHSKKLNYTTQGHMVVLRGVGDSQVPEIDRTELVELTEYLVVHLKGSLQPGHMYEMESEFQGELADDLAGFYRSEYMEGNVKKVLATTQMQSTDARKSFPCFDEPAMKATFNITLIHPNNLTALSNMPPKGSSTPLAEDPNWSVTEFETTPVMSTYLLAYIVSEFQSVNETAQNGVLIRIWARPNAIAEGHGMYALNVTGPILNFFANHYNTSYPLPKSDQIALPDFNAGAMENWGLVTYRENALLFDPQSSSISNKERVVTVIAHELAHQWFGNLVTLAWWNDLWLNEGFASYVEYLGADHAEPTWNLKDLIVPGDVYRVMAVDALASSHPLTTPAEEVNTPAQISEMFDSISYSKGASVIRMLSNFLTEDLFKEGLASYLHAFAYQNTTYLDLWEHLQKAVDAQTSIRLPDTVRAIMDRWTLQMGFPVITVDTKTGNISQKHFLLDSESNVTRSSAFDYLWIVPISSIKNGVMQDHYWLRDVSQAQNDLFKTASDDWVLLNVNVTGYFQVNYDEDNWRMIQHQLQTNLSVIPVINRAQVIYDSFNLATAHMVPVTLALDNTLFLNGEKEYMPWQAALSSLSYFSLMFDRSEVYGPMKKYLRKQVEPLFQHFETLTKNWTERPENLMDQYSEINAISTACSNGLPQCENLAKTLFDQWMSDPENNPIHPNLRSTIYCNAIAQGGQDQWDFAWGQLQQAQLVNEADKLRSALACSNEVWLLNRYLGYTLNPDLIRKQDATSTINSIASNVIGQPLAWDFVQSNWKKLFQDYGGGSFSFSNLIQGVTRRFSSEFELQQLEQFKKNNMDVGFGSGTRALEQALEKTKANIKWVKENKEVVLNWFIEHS
Procedure: The enzymatic inhibitory activities of target compounds were evaluated using L-Leu-p-nitroanilide (Sigma-Aldrich, St. Louis, MO, USA) as substrate and soluble APN from porcine kidney microsomal (Enzo Life Sciences, Farmingdale, NY, USA) as enzyme. Firstly, the substrate was dissolved in DMSO to a concentration of 16 mmol/L and the enzyme was dissolved in buffer solution of 50 mM PBS (pH = 7.2) for a concentration of 0.15 IU/L. Subsequently, inhibitors (40 μL) and PBS (145 μL) were added into the 96-well plates, followed by the addition of substrate (5 μL) and enzyme (10 μL). After incubation at 37 °C for 30 min, the absorbance values were measured at 405 nm with a plate reader (Varioskan, Thermo Fisher Scientific, Waltham, MA, USA).

**Q.** Which IC50 [1] does the source give for `CC(=O)N1N=C(c2ccccc2)CC1c1ccccc1OCC(=O)NO` (centres unmarked) [Compound 13a, reference compound] here?
**A.** 320 ± 10 nM

**Q.** With `NC(=O)N1N=C(c2ccccc2)CC1c1ccccc1OCC(=O)NO` (centres unmarked) [Compound 13b, reference compound] as the compound, how does the IC50 [1] read?
**A.** 160 ± 10 nM

**Q.** With `NC(=O)N1N=C(c2c(Cl)cccc2Cl)CC1c1ccccc1OCC(=O)NO` (centres unmarked) [Compound 13c, reference compound] as the compound, how does the IC50 [1] read?
**A.** 59 ± 2 nM

**Q.** Which IC50 [1] does the source give for `CC(=O)N1N=C(c2ccccc2Br)CC1c1ccccc1OCC(=O)NO` (centres unmarked) [Compound 14a, 2-(2-(1-Acetyl-3-(2-bromophenyl)-4,5-dihydro-1H-pyrazol-5-yl)phenoxy)-N-hydroxy acetamide] here?
**A.** 46 ± 3 nM

**Q.** And the melting point?
**A.** 162 to 164 °C

**Q.** What does the source list for `CC(=O)N1N=C(c2ccccc2OCc2ccccc2)CC1c1ccccc1OCC(=O)NO` (centres unmarked) [Compound 14aa, 2-(2-(1-Acetyl-3-(2-(benzyloxy)phenyl)-4,5-dihydro-1H-pyrazol-5-yl)phenoxy)-N-hydroxyacetamide]?
**A.** IC50 [1]: 17 ± 1 nM; melting point: 162 to 164 °C

**Q.** Which IC50 [1] does the source give for `CC(=O)N1N=C(c2cccc(Br)c2)CC1c1ccccc1OCC(=O)NO` (centres unmarked) [Compound 14b, 2-(2-(1-Acetyl-3-(3-bromophenyl)-4,5-dihydro-1H-pyrazol-5-yl)phenoxy)-N-hydroxy acetamide] here?
**A.** 320 ± 30 nM

**Q.** What about the melting point of the same compound?
**A.** 152 to 154 °C

**Q.** Which IC50 [1] does the source give for `NC(=O)N1N=C(c2ccccc2OCc2ccccc2)CC1c1ccccc1OCC(=O)NO` (centres unmarked) [Compound 14bb, 3-(2-(Benzyloxy)phenyl)-5-(2-(2-(hydroxyamino)-2-oxoethoxy)phenyl)-4,5-dihydro-1H-pyrazole-1-carboxamide] here?
**A.** 15 ± 1 nM

**Q.** And the melting point?
**A.** 176 to 178 °C

**Q.** What does the source list for `CC(=O)N1N=C(c2ccc(Br)cc2)CC1c1ccccc1OCC(=O)NO` (centres unmarked) [Compound 14c, 2-(2-(1-Acetyl-3-(4-bromophenyl)-4,5-dihydro-1H-pyrazol-5-yl)phenoxy)-N-hydroxy acetamide]?
**A.** IC50 [1]: 4400 ± 300 nM; melting point: 202 to 204 °C

**Q.** For `CC(=O)N1N=C(c2ccccc2OCc2ccccc2Br)CC1c1ccccc1OCC(=O)NO` (centres unmarked) [Compound 14cc, 2-(2-(1-Acetyl-3-(2-((2-bromobenzyl)oxy)phenyl)-4,5-dihydro-1H-pyrazol-5-yl)phenoxy)-N-hydroxyacetamide], which IC50 [1] is on record?
**A.** 68 ± 4 nM

**Q.** And the melting point?
**A.** 82 to 84 °C

**Q.** What does the source list for `COc1ccccc1C1=NN(C(C)=O)C(c2ccccc2OCC(=O)NO)C1` (centres unmarked) [Compound 14d, 2-(2-(1-Acetyl-3-(2-methoxyphenyl)-4,5-dihydro-1H-pyrazol-5-yl)phenoxy)-N-hydroxy acetamide]?
**A.** IC50 [1]: 320 ± 10 nM; melting point: 170 to 172 °C

**Q.** Which IC50 [1] does the source give for `NC(=O)N1N=C(c2ccccc2OCc2ccccc2Br)CC1c1ccccc1OCC(=O)NO` (centres unmarked) [Compound 14dd, 3-(2-((2-Bromobenzyl)oxy)phenyl)-5-(2-(2-(hydroxyamino)-2-oxoethoxy)phenyl)-4,5-dihydro-1H-pyrazole-1-carboxamide] here?
**A.** 230 ± 10 nM

**Q.** What about the melting point of the same compound?
**A.** 92 to 94 °C

**Q.** Which IC50 [1] does the source give for `COc1cccc(C2=NN(C(C)=O)C(c3ccccc3OCC(=O)NO)C2)c1` (centres unmarked) [Compound 14e, 2-(2-(1-Acetyl-3-(3-methoxyphenyl)-4,5-dihydro-1H-pyrazol-5-yl)phenoxy)-N-hydroxy acetamide] here?
**A.** 370 nM

**Q.** What about the melting point of the same compound?
**A.** 170 to 172 °C

**Q.** For `CC(=O)N1N=C(c2ccccc2OCc2cccc(Br)c2)CC1c1ccccc1OCC(=O)NO` (centres unmarked) [Compound 14ee, 2-(2-(1-Acetyl-3-(2-((3-bromobenzyl)oxy)phenyl)-4,5-dihydro-1H-pyrazol-5-yl)phenoxy)-N-hydroxyacetamide], which IC50 [1] is on record?
**A.** 31 ± 2 nM

**Q.** What about the melting point of the same compound?
**A.** 164 to 166 °C

**Q.** Which IC50 [1] does the source give for `COc1ccc(C2=NN(C(C)=O)C(c3ccccc3OCC(=O)NO)C2)cc1` (centres unmarked) [Compound 14f, 2-(2-(1-Acetyl-3-(4-methoxyphenyl)-4,5-dihydro-1H-pyrazol-5-yl)phenoxy)-N-hydroxy acetamide] here?
**A.** 3800 ± 200 nM

**Q.** And the melting point?
**A.** 120 to 122 °C

**Q.** Which IC50 [1] does the source give for `NC(=O)N1N=C(c2ccccc2OCc2cccc(Br)c2)CC1c1ccccc1OCC(=O)NO` (centres unmarked) [Compound 14ff, 3-(2-((3-Bromobenzyl)oxy)phenyl)-5-(2-(2-(hydroxyamino)-2-oxoethoxy)phenyl)-4,5-dihydro-1H-pyrazole-1-carboxamide] here?
**A.** 58 ± 3 nM

**Q.** And the melting point?
**A.** 120 to 122 °C

**Q.** What does the source list for `CC(=O)N1N=C(c2ccccc2F)CC1c1ccccc1OCC(=O)NO` (centres unmarked) [Compound 14g, 2-(2-(1-Acetyl-3-(2-fluorophenyl)-4,5-dihydro-1H-pyrazol-5-yl)phenoxy)-N-hydroxy acetamide]?
**A.** IC50 [1]: 250 ± 10 nM; melting point: 176 to 178 °C

**Q.** Which IC50 [1] does the source give for `CC(=O)N1N=C(c2ccccc2OCc2ccc(Br)cc2)CC1c1ccccc1OCC(=O)NO` (centres unmarked) [Compound 14gg, 2-(2-(1-Acetyl-3-(2-((4-bromobenzyl)oxy)phenyl)-4,5-dihydro-1H-pyrazol-5-yl)phenoxy)-N-hydroxyacetamide] here?
**A.** 560 ± 40 nM

**Q.** What about the melting point of the same compound?
**A.** 96 to 98 °C

**Q.** With `CC(=O)N1N=C(c2ccccc2Cl)CC1c1ccccc1OCC(=O)NO` (centres unmarked) [Compound 14h, 2-(2-(1-Acetyl-3-(2-chlorophenyl)-4,5-dihydro-1H-pyrazol-5-yl)phenoxy)-N-hydroxy acetamide] as the compound, how does the IC50 [1] read?
**A.** 29 ± 2 nM

**Q.** And the melting point?
**A.** 166 to 168 °C

**Q.** Which IC50 [1] does the source give for `NC(=O)N1N=C(c2ccccc2OCc2ccc(Br)cc2)CC1c1ccccc1OCC(=O)NO` (centres unmarked) [Compound 14hh, 3-(2-((4-Bromobenzyl)oxy)phenyl)-5-(2-(2-(hydroxyamino)-2-oxoethoxy)phenyl)-4,5-dihydro-1H-pyrazole-1-carboxamide] here?
**A.** 550 ± 40 nM

**Q.** And the melting point?
**A.** 96 to 98 °C

**Q.** With `CC(=O)N1N=C(c2ccccc2I)CC1c1ccccc1OCC(=O)NO` (centres unmarked) [Compound 14i, 2-(2-(1-Acetyl-3-(2-iodophenyl)-4,5-dihydro-1H-pyrazol-5-yl)phenoxy)-N-hydroxy acetamide] as the compound, how does the IC50 [1] read?
**A.** 15 ± 1 nM

**Q.** And the melting point?
**A.** 174 to 176 °C

**Q.** With `NC(=O)N1N=C(c2ccccc2I)CC1c1ccccc1OCC(=O)NO` (centres unmarked) [Compound 14j, 5-(2-(2-(Hydroxyamino)-2-oxoethoxy)phenyl)-3-(2-iodophenyl)-4,5-dihydro-1H-pyrazole-1-carboxamide] as the compound, how does the IC50 [1] read?
**A.** 44 ± 3 nM

**Q.** And the melting point?
**A.** 164 to 166 °C

**Q.** For `CC(=O)N1N=C(c2ccccc2C)CC1c1ccccc1OCC(=O)NO` (centres unmarked) [Compound 14k, 2-(2-(1-Acetyl-3-(o-tolyl)-4,5-dihydro-1H-pyrazol-5-yl)phenoxy)-N-hydroxyacetamide], which IC50 [1] is on record?
**A.** 210 ± 10 nM

**Q.** What about the melting point of the same compound?
**A.** 170 to 172 °C

**Q.** Which IC50 [1] does the source give for `CC(=O)N1N=C(c2ccc(Cl)cc2Cl)CC1c1ccccc1OCC(=O)NO` (centres unmarked) [Compound 14l, 2-(2-(1-Acetyl-3-(2,4-dichlorophenyl)-4,5-dihydro-1H-pyrazol-5-yl)phenoxy)-N-hydroxyacetamide] here?
**A.** 580 ± 40 nM

**Q.** And the melting point?
**A.** 128 to 130 °C

**Q.** With `COc1cccc(OC)c1C1=NN(C(C)=O)C(c2ccccc2OCC(=O)NO)C1` (centres unmarked) [Compound 14m, 2-(2-(1-Acetyl-3-(2,6-dimethoxyphenyl)-4,5-dihydro-1H-pyrazol-5-yl)phenoxy)-N-hydroxyacetamide] as the compound, how does the IC50 [1] read?
**A.** 200 ± 10 nM

**Q.** What about the melting point of the same compound?
**A.** 178 to 180 °C

**Q.** Which IC50 [1] does the source give for `COc1cccc(OC)c1C1=NN(C(N)=O)C(c2ccccc2OCC(=O)NO)C1` (centres unmarked) [Compound 14n, 3-(2,6-Dimethoxyphenyl)-5-(2-(2-(hydroxyamino)-2-oxoethoxy)phenyl)-4,5-dihydro-1H-pyrazole-1-carboxamide] here?
**A.** 440 ± 30 nM

**Q.** What about the melting point of the same compound?
**A.** 212 to 214 °C
